Measured values: patent publication US8632789B2, “System and method for delivery of DNA-binding chemotherapy drugs using nanoparticles” (Syracuse University, priority 2010, dated 2014)

Assay: Thermal denaturation (melting) of DNA-capped AuNP by UV-vis at 260 nm as a function of DOX loading
Assay type: physicochemical
Conditions: control studies, r=12; [DOX]=5.9 μM; [AuNP]=13.7 nM
Experimental: To probe the uptake of DOX via intercalation to 1ab-AuNP, we investigated the thermal denaturation of the 1ab strands by measuring increase in extinction at 260 nm using UV-visible spectroscopy (UV-vis).
We next utilized the 1ab- or 2ab-AuNP prepared above, with dsDNA-functionalization, for drug (DOX) loading. For each DOX binding and melting experiment, 1ab- or 2ab-AuNP were incubated for 40 min with DOX at specific ratios, r=[DOX]/[1ab/2ab]. In this study, we explored r=0-12, based on the number of 1ab per AuNP, as well as the number of binding sites at each 1ab. Next, each DOX-1ab-AuNP was analyzed via thermal denaturation melting experiments using temperature controlled UV-vis at Abs=260 nm and a heating rate of 1° C./min from 25° C. to 80° C. Each melting temperature was taken as the maximum of a peak-fitted first derivative plot of its corresponding melting curve (using PeakFit® Peak Separation and Analysis Software, V.4.12).
UV-visible Absorption (UV-vis): The UV-vis measurements were collected on a Varian Cary100 Bio UV-vis spectrophotometer between 200-900 nm. The instrument is equipped with an 8-cell automated holder with high precision Peltier heating controller.

Cooperative melting in the temperature range of ~55-65° C.: not observed
Structure (SMILES): COc1cccc2c1C(=O)c1c(O)c3c(c(O)c1C2=O)C[C@@](O)(C(=O)CO)C[C@@H]3O[C@H]1C[C@H](N)[C@H](O)[C@H](C)O1 [DOX, doxorubicin]
